These results are taken from patent EP0942896B1, “SUBSTITUTED PHENOLS AND THIOPHENOLS USEFUL AS ANTIOXIDANT AGENTS” (Aventis Pharmaceuticals Inc., priority 1996, dated 1998).

The nature of data set [1]: HPLC quantitation of compound and metabolite concentration in rabbit serum and liver. The note with it: female, New Zealand White, oral, 0.4 % in chow, diet 0.4%, 7 days, mean N = 5. It counts as in vivo, Female New Zealand White rabbits. The text has this:
(§1) Perform five independent experiments in the following manner. Each study has a control group and 1-5 groups treated with MDL compound (N = 5 per group). Feed Female New Zealand White rabbits (Hazelton, ∼ 2.0-2.3 kg) 0.2% cholesterol enriched rabbit chow (Purina #5322) with or without 0.4% MDL compound. Solubilize the MDL compounds in 100% ethanol. Spray the chow with the MDL mixtures and allow to dry overnight in a chemical fume hood. Spray control chow with ethanol. Feed rabbits 100 grams food per day for 7 days (0.6% MDL 103,491 were fed for 14 days); make available water ad libitum. On day 7, bleed (~ 2 mL) rabbits (fasted overnight) from a marginal ear vein. Euthanize rabbits by carbon dioxide overdose. Record the total body and liver weights in grams. Record food as grams • day^-1 · rabbit^-1. Use aliquots of fresh serum for clinical chemistries, lipoprotein cholesterol determination, thiobarbituric acid reactive substances (TBARS) and compound and metabolite concentrations in serum. Freeze livers (∼ 5 gram aliquots) at -20°C for compound and metabolite concentration determination at a later time.
Determine serum and liver concentrations of parent compounds and the metabolites, bisphenol and diphenoquinone, by reverse phase HPLC using a Waters 990 Powerline system. […] Calculate compound concentrations from known quantities of authentic parent compounds after correction for recovery. […]

Data set [2] concerns Choleterol-Fed Female New Zealand White Rabbits. As to the kind of experiment: Hypocholesterolemic effects in cholesterol-fed rabbits: serum cholesterol, lipoprotein cholesterol, triglycerides. The note with it: % of control, diet 0.4%, 7 days, 0.2% cholesterol chow, N = 5. It is filed as in vivo.
Excerpt: as §1
Allow blood to clot at room temperature for 30 minutes. Obtain serum after centrifugation for 10 min at 5°C at 3000 rpm in a Beckman GPKR centrifuge with a GH rotor. Analyze by a COBAS MIRA autoanalyzer (Roche Diagnostics) using Roche diagnostic reagents for total cholesterol (CHOL, kit # 44334) and triglyceride (TG, kit # 44120). Calculate cholesterol and triglycerides as mg/dL.
Separate lipoprotein fractions (very low density lipoprotein, VLDL, low density lipoprotein, LDL and high density lipoprotein, HDL) on a Sepharose 6HR column (1 x 30 cm, Pharmacia) attached to a Waters Powerline HPLC system. Inject serum (50 µL) onto the column and elute with phosphate buffered saline, pH 7.4, at a flow rate of 0.5 mL/min. Add cholesterol reagent (Roche Diagnostics, kit # 44334, diluted with 20 mL water and then with 20 mL of 0.9% saline) at 0.2 mL/min to the post column eluant and incubate in a knitted PFTE Kratos reaction coil (Applied Biosystems) at 37°C for 5 min. Measure absorbance at 500 nm. The lipoprotein subfractions are quantitated as follows: (total serum cholesterol) x (% area under the curve for each subfraction) [formula]

Like-named read-outs stand apart in the source and are kept apart here.

Take `CC(C)=CCC[C@H](C)CCOc1cc(C(C)(C)C)c(O)c(C(C)(C)C)c1` [MDL 103,294, Phenol, 2,6-bis(1,1-dimethylethyl)-4-[(3,7-dimethyl-6-octenyl)oxy]-, (S)-]: the concentration at 7 day in data set [1] (parent compound concentration in rabbit liver, read-out: Liver Parent) was 77000 ng/g; in data set [1] (parent compound concentration in rabbit serum, read-out: Serum Parent), 19800 ng/mL. The compound also yielded an HDL in data set [2] (High Density lipoprotein cholesterol) of 192%. Further, the LDL in data set [2] (Low Density lipoprotein cholesterol) was 82%. Also, the chol tot. in data set [2] (total cholesterol in serum, fasted overnight) is 94%. The TRIG in data set [2] (triglycerides in serum) amounted to 197%.
